Data published in patent US5362738A, “Tricyclic pyridone derivatives” (Hoffmann-La Roche Inc., priority 1990, dated 1994).

Columns and labels:
[1] = test system: spasmodic seizures caused by pentetrazole; assay: antipentetrazole test (oral, mice); assay type: in vivo; settings: Mus musculus, 0.5 h, p.o., 120 mg/kg pentetrazole i.p. 30 minutes later, 10 animals per dosage, Probit method, dosage protecting 50% of animals
Method: As mentioned above, the compounds of formula I have valuable pharmacological properties. In particular, they display pronounced muscle relaxant, sedative-hypnotic, anticonvulsive and/or anxiolytic properties and have a low toxicity.
(§1) In this animal experiment the compound under investigation is administered orally to mice and 30 minutes later there are administered intraperitoneally 120 mg/kg of pentetrazole, which causes emprosthotonus and tonic stretchings of the fore and/or hind limbs in unprotected animals 1-4 minutes after the injection. 10 experimental animals are used per dosage of test substance. After counting the protected experimental animals the ED50 is determined according to the Probit method. The ED50 is that dosage which protects 50% of the experimental animals from the spasmodic seizures caused by pentetrazole. The results which have been obtained with representative members of the class of compound defined by formula I in the experiment described previously are compiled in the following Table. Moreover, the Table contains data concerning the acute toxicity (LD50) of some of these compounds in mg/kg in the case of single oral administration to mice.

[2] = acute toxicity (LD50), single oral administration to mice; settings: mouse, in vivo, p.o.
Method: as §1

`COC1CN(C(=O)c2cc(-c3ccccc3)c(=O)n3c2-c2c(Cl)cccc2C3)C1` [H, 3-MeO-azetidino, --CCl=CH--CH=CH--, 1-[(10-chloro-4,6-dihydro-4-oxo-3-phenylpyrido[2,1-a]isoindol-1-yl)carbonyl]-3-methoxyazetidine] gave an ED50 [1] of 2.2 mg/kg.
With `COC1CN(C(=O)c2cc(-c3ccccc3)c(=O)n3c2-c2ccccc2C3)C1` [H, 3-MeO-azetidino, --CH=CH--CH=CH--, 1-[(4,6-dihydro-4-oxo-3-phenylpyrido[2,1-a]isoindol-1-yl)carbon-yl]-3-methoxyazetidine] the ED50 [1] was 0.39 mg/kg.
For `COC1CN(C(=O)c2cc(-c3ccccc3)c(=O)n3c2-c2sccc2C3)C1` [H, 3-MeO-azetidino, --S--CH=CH--, 1-[(4,6-dihydro-6-oxo-7-phenylthieno[2',3':3,4]pyrrolo[1,2-a]pyridin-9-yl)-carbonyl]-3-methoxyazetidine], the LD50 [2] was 2500 mg/kg and the ED50 [1] was 2.1 mg/kg.
With `CO[C@H]1CCN(C(=O)c2cc(-c3ccccc3)c(=O)n3c2-c2sccc2C3)C1` [H, 3-MeO-pyrrolidino, --S--CH=CH--, (S)-1-[(4,6-dihydro-6-oxo-7-phenylthieno[2',3':3,4]pyrrolo[1,2-a]-pyridin-9-yl)carbonyl]-3-methoxypyrrolidine] the LD50 [2] was 375 mg/kg and the ED50 [1] was 1.7 mg/kg.
For `CN1CCN(C(=O)c2cc(-c3ccccc3)c(=O)n3c2-c2ccccc2C3)CC1.Cl` [H, 4-Me-piperazino, --CH=CH--CH=CH--, 1-[(4,6-dihydro-4-oxo-3-phenylpyrido[2,1-a]isoindol-1-yl)carbonyl]-4-methyl-piperazine hydrochloride], the LD50 [2] was 312 mg/kg and the ED50 [1] was 5.7 mg/kg.
Work on `COC[C@H]1CCCN1C(=O)c1cc(-c2ccccc2)c(=O)n2c1-c1ccccc1C2` [H, (R)-2-MeOCH2 --Py--, --CH=CH--CH=CH--, (R)-1-[[4,6-dihydro-4-oxo-3-phenylpyrido[2,1-a]isoindol-1-yl]carbonyl]-2-(methoxymethyl)pyrrolidine] yielded an LD50 [2] of 1500 mg/kg and an ED50 [1] of 2.3 mg/kg.
For `COC[C@H]1CCCN1C(=O)c1cc(-c2ccccc2)c(=O)n2c1-c1sccc1C2` [H, (R)-2-MeOCH2 --Py--, --S--CH=CH--, (R)-1-[(4,6-dihydro-6-oxo-7-phenylthieno[2',3':3,4]pyrrolo[1,2-a]pyridin-9-yl)carbonyl]-2-(methoxymethyl)pyrrolidine], the LD50 [2] was 625 mg/kg and the ED50 [1] was 0.76 mg/kg.
`CN(C)C(=O)c1cc(-c2ccccc2)c(=O)n2c1-c1ccccc1C2` [H, Me2 N--, --CH=CH--CH=CH--, N,N-dimethyl-4,6-dihydro-4-oxo-3-phenylpyrido[2,1-a]isoindole-1-carboxamide] showed an LD50 [2] of 375 mg/kg and an ED50 [1] of 0.73 mg/kg.
`O=C(c1cc(-c2ccccc2)c(=O)n2c1-c1sccc1C2)N1CCOCC1` [H, Morpholino, --S--CH=CH--, 4-[(4,6-dihydro-6-oxo-7-phenylthieno[2',3':3,4]pyrrolo[1,2-a]pyridin-9-yl)carbonyl]-morpholine] gave an LD50 [2] of 5000 mg/kg and an ED50 [1] of 1.32 mg/kg.
